Source: ChEMBL document CHEMBL1201862, “PubChem BioAssay data set” (2004)
Activity calls are given as the source filed them.

Experiments:
CHO = test: cytotoxicity in TLR9-MyD88 CHO cells, dose response, cytotoxicity control for TLR9-MyD88 binding inhibitor project, cell-based, luminescence (AID 588339); format: functional, hamster; details: Cricetulus griseus;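 note: CHO cells stably coexpressing TLR9 and MyD88 fusions from primary screen; compound exposure lasted 48 hours before viability readout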
[1] = target: T1, Endoribonuclease toxin MazF (Escherichia coli K-12, UniProt P0AE70); test: MazF toxin RNase activators, dose response, biochemical, fluorescence, single-stranded RNA substrate, uHTS hits (AID 588481); format: functional
T1 sequence (P0AE70 whole entry): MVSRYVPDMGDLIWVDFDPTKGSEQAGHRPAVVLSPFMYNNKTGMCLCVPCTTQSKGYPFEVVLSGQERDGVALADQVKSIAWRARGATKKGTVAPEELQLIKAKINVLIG

Beta Lactamase = Beta Lactamase (Pseudomonas aeruginosa, UniProt Q932Y6); test: beta-lactamase reporter inhibitor potency, dose response, artefact control for TLR9-MyD88 binding inhibitor project, BLA reporter cells, FRET fluorescence (AID 588341); format: cell-based;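 note: cell based assay in CHO-K1 cells stably expressing beta-lactamase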
Sequence of Beta Lactamase (Q932Y6 whole entry): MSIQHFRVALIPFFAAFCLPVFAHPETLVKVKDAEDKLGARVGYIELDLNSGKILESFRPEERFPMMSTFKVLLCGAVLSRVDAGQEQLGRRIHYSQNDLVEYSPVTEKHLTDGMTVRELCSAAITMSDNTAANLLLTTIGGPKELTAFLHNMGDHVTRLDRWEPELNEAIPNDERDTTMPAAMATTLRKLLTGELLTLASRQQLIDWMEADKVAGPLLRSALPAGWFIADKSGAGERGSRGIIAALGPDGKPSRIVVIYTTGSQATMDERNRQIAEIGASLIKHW

[2] = target: T1, Endoribonuclease toxin MazF; test: fluorescent RNA oligo signal without MazF, dose response, counter-screen for MazEF activator project, biochemical, fluorescence, single-stranded RNase substrate (AID 588502); format: functional
[3] = target: Arf-GAP with SH3 domain, ANK repeat and PH domain-containing protein 1 (Homo sapiens, UniProt Q9ULH1); format: functional;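 note: biochemical fluorescence polarization dose–response screen measuring inhibition of ASAP1; ASAP1 GAP domain stimulating GTP hydrolysis by truncated human ARF1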
Sequence of Arf-GAP with SH3 domain, ANK repeat and PH domain-containing protein 1 (Q9ULH1 whole entry, the tested form may be a part): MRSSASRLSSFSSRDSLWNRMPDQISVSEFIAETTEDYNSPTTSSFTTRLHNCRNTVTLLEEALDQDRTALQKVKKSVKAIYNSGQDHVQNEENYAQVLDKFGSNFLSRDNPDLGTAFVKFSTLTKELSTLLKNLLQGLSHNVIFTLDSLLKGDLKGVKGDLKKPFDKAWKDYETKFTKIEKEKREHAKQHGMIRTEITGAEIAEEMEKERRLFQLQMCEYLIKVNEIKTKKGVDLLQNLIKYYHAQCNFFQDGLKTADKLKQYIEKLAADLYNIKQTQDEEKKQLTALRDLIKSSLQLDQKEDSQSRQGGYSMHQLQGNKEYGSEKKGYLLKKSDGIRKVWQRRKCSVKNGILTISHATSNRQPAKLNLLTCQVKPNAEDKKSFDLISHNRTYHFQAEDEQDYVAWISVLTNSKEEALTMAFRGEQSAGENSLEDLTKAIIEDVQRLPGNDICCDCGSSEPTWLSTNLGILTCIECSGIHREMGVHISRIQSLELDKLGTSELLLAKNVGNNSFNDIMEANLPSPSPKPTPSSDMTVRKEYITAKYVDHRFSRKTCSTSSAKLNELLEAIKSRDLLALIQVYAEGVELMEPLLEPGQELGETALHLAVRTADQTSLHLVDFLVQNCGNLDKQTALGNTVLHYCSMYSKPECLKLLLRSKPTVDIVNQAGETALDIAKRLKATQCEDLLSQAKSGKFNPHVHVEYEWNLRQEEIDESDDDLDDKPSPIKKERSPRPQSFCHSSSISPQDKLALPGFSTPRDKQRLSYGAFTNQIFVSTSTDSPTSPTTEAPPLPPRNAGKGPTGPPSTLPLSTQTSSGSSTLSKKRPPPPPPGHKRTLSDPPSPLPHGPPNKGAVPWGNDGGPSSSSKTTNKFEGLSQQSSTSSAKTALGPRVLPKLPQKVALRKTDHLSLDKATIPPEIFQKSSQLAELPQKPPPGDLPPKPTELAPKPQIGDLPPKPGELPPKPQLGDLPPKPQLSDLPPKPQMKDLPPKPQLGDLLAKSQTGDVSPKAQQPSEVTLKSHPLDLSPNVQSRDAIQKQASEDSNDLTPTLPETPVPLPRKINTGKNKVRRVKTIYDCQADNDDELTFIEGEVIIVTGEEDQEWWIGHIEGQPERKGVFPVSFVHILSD

[4] = Luminescence Cell-Based Dose Response HTS to Identify Inhibitors of 5'UTR Stem-Loop Driven Prion Protein mRNA Translation in H4 Neuroglioblastoma Cells. [Related pubchem assays: 1827 (Project Summary), 1813 (Primary HTS)]; format: functional
[5] = inhibitors of SNCA 5'UTR-driven reporter translation, confirmation, H4 neuroglioma cells, luminescence (AID 1988); format: functional, cell-based
HEK293 = test: inhibitors of LMP1-driven NF-kB reporter, dose response, cell-based, HEK293, luciferase, cherry-pick (AID 588343); format: functional; details: Homo sapiens
[6] = A549 cell cytotoxicity, dose response, cytotoxicity control, plate reader, cherry-pick, antagonist series (AID 743412); format: functional, cell-based
[7] = HepG2 cell cytotoxicity, dose response, cytotoxicity control, plate reader, cherry-pick, antagonist series (AID 743416); format: functional, cell-based
[8] = LGR2 antagonists, dose response, cell-based, HEK293, CRE-luciferase reporter, cherry pick, set 2 (AID 743343); format: functional;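 note: transfected cells were stimulated with diluted bursicon conditioned medium after compound addition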
[9] = MC4R antagonists, dose response, counter-screen for LGR2 antagonist project, cell-based, plate reader, cherry pick (AID 743444); format: functional;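 note: transfected HEK 293 cells stimulated with alpha-MSH peptide; potency of inhibitors of the alpha-MSH evoked signal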
[10] = HEK293 cell cytotoxicity, dose response, cytotoxicity control, plate reader, cherry-picked samples (AID 743446); format: functional, cell-based
HeLa = test: HeLa cell cytotoxicity, dose response, cytotoxicity control for MITF activator project, CellTiter-Glo luminescence, cherry-pick samples (AID 540259); format: functional, cell-based; details: Homo sapiens
[11] = target: 26S proteasome non-ATPase regulatory subunit 14 (Homo sapiens, UniProt O00487); test: inhibition of proteasome subunit RPN11 – biochemical, fluorescence polarization, uHTS hits, confirmation (AID 602368); format: functional
Sequence of 26S proteasome non-ATPase regulatory subunit 14 (O00487 whole entry): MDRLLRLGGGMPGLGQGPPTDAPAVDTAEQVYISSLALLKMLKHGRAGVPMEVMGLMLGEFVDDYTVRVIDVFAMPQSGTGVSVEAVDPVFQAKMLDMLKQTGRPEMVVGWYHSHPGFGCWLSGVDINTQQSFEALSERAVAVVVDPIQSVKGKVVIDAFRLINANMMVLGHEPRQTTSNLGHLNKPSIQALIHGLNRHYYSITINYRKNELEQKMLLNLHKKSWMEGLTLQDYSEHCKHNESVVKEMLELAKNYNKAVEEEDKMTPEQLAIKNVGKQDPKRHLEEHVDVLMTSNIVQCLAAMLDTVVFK

[12] = target: 72 kDa type IV collagenase (Homo sapiens, UniProt P08253); test: Dose Response validation of uHTS RPN11 inhibitor hits using a MMP-2 Fluorescence assay.; format: functional
Sequence of 72 kDa type IV collagenase (P08253 whole entry): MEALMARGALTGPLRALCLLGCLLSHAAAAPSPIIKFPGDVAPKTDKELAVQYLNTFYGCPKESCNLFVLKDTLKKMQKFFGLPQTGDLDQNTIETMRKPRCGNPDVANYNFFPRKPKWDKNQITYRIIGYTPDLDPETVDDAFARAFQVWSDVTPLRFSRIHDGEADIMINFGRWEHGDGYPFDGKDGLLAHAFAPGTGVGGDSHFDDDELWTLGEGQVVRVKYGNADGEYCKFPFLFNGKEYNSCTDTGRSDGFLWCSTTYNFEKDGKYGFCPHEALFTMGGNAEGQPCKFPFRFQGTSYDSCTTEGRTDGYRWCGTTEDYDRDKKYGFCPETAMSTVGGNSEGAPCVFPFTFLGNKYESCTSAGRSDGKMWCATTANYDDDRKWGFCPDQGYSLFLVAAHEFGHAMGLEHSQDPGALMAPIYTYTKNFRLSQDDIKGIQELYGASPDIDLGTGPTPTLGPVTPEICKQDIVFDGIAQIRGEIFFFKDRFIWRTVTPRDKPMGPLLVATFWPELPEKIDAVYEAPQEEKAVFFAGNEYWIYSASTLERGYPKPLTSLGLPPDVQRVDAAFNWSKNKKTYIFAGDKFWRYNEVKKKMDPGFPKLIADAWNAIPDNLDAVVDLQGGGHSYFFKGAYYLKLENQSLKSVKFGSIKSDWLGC

Prothrombin = Prothrombin (Bos taurus, UniProt P00735); test: thrombin inhibition, dose response, biochemical, fluorescence polarization, uHTS hits (AID 602369); format: functional

COc1cc2c3nnc(-c4ccc(F)cc4)c-3cn(Cc3cccc(C)c3)c2cc1OC
IC50 (CHO): 10.2 µM (inactive) | EC50 [1]: 24.1 µM (inactive) | IC50 (Beta Lactamase): 3.92 µM (active) | EC50 [2]: 16.7 µM (active) | IC50 [3]: 7.44 µM (active)

O=C(Nc1ccccn1)c1onc2c1CCCC2
EC50 [4]: 50.2 µM (active) | EC50 [5]: 4.67 µM (active) | AC50 (HEK293): 1.46 µM (active) | AC50 [6]: 45.1 µM (active) | AC50 [7]: 15.9 µM (active) | AC50 [8]: 3.65 µM (active) | AC50 [9]: 3.55 µM (active) | AC50 [10]: > 52 µM (inactive)

Nc1c(C(=O)N2CCCC2)sc2nc(-c3ccccc3)ccc12
IC50 (CHO): > 49.7 µM (inactive) | IC50 (Beta Lactamase): 12.4 µM (inactive) | AC50 (HeLa): 197 µM (active)

O=Cc1sc(Nc2ccccc2)nc1Cl
IC50 [11]: 8.23 µM (active) | IC50 [12]: > 100 µM (inactive) | IC50 (Prothrombin): 11.4 µM (active)
